Laboratory results: article PMC5890937 (European journal of medicinal chemistry, 2017)
“And” between values parts separate entries of the source, which are not always exact repeats. Equal entries are not always repeated. Values belong to the compound of their own block, whether it stands above or below them.

Key:
HDAC6 [1] = biological target: T1, HDAC6 (Homo sapiens, UniProt Q9UBN7); assay: ELISA-based HDAC activity assay, HDAC6; format: biochemical; conditions: for fold selectivity for HDAC6 and HDAC8 over HDAC1, 2, and 3 / HDAC6 selectivity over HDAC1, 2, and 3: from IC50 values; for isoform selectivity in single concentration screen (HDAC6 versus HDAC1, 2, 3): 1a-f at 0.75, 0.75, 2.5, 1.25, 2.5, and 5 μM, SAHA at 1 μM
T1 sequence (Q9UBN7 1-1215): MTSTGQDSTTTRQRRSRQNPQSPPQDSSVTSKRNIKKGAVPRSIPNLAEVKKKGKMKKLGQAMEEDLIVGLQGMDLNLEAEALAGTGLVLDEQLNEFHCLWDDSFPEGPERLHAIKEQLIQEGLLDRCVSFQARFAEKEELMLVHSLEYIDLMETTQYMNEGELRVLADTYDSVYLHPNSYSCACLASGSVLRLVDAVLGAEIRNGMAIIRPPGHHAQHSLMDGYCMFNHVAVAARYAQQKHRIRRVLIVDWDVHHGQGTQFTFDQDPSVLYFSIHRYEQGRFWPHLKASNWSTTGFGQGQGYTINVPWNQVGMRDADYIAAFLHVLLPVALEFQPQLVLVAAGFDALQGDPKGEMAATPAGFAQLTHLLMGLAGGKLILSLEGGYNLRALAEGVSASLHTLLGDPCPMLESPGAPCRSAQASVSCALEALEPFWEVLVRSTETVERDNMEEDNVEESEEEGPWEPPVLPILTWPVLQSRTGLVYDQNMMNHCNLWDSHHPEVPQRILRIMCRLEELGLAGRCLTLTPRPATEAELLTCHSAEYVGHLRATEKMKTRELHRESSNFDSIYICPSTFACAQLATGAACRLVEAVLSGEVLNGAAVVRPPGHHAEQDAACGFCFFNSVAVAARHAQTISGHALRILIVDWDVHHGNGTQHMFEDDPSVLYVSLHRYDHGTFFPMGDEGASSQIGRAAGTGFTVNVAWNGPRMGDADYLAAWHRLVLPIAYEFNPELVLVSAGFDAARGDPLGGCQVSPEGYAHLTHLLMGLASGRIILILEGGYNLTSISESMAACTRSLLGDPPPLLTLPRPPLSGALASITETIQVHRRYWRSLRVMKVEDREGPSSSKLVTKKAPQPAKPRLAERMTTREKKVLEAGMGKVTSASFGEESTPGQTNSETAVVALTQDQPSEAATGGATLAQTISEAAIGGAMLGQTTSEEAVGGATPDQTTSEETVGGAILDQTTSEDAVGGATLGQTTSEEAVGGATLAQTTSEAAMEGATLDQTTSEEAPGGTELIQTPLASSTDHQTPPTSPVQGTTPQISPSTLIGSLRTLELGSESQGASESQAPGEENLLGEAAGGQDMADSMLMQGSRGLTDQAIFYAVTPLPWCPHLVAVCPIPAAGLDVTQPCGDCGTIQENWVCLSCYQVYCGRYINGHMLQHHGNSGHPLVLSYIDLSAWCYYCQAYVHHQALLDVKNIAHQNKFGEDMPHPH

HeLa cell lysates = assay: Global HDAC inhibition with HeLa cell lysates; format: biochemical, human; conditions: HeLa cell lysates IC50 relative to SAHA
acetyl-α-tubulin (AcTub) = assay: In cellulo selectivity testing, western blot of acetyl-α-tubulin in U937 cells; format: cell-based, human; conditions: SAHA 5 μM, 1f 20-60 μM, 18 hours
HDAC6 [2] = conditions: cited from earlier work
HDAC8 = conditions: read-out: IC50 with HDAC8; cited from earlier work

Structure (SMILES): O=C(CC[C@H](CCCC(=O)Nc1ccccc1)Cc1ccccc1)NO [(S)-1f, (S)-4-benzyl-N^1-hydroxy-N^8-phenyloctanediamide]
fold selectivity for HDAC6 and HDAC8 over HDAC1, 2, and 3 (HDAC6 [1]): 240- to 540 fold

Structure (SMILES): O=C(CC[C@@H](CCCC(=O)Nc1ccccc1)Cc1ccccc1)NO [(R)-1f, (R)-4-benzyl-N^1-hydroxy-N^8-phenyloctanediamide]
fold selectivity for HDAC6 and HDAC8 over HDAC1, 2, and 3 (HDAC6 [1]): 520- to 1300 fold

Structure (SMILES): CCCC(CCC)C(=O)NO [Valpropylhydroxamic acid]
selectivity for HDAC6 and 8 against HDAC1, 2, and 3 (HDAC6 [2]): 9-17 fold

Structure (SMILES): O=C(CCCC(CCC(=O)Nc1ccccc1)Cc1ccccc1)NO (centres unmarked) [C5-benzyl SAHA]
HDAC6/8 selectivity (HDAC6 [2]): 8- to 21 fold
IC50 (HDAC6 [2]; read-out: IC50 with HDAC6): 270 nM
IC50 (HDAC8): 380 nM

Second part, led by results:

isoform selectivity in single concentration screen (HDAC6 versus HDAC1, 2, 3) (HDAC6 [1]): smallest difference in potency
Structure (SMILES): CC(CCCC(=O)Nc1ccccc1)CCC(=O)NO (centres unmarked) [Compound 1a, N^1-hydroxy-4-methyl-N^8-phenyloctanediamide]
fold less potent compared to SAHA (HeLa cell lysates): 18 fold

isoform selectivity in single concentration screen (HDAC6 versus HDAC1, 2, 3) (HDAC6 [1]): greatest difference in potency
HDAC6 selectivity over HDAC1, 2, and 3 (HDAC6 [1]): at least 210 fold
fold selectivity for HDAC6 and HDAC8 over HDAC1, 2, and 3 (HDAC6 [1]): 210- to 740 fold
Structure (SMILES): O=C(CCC(CCCC(=O)Nc1ccccc1)Cc1ccccc1)NO (centres unmarked) [Compound 1f, 4-benzyl-N^1-hydroxy-N^8-phenyloctanediamide]
levels of acetyl-α-tubulin (HDAC6 substrate) (acetyl-α-tubulin (AcTub)): dose-dependent increase

HDAC6 selectivity over HDAC1, 2, and 3 (HDAC6 [1]): at least 210 fold
fold selectivity for HDAC6 and HDAC8 over HDAC1, 2, and 3 (HDAC6 [1]): 170- to 480 fold and 210- to 480 fold
Structure (SMILES): CCCCCCC(CCCC(=O)Nc1ccccc1)CCC(=O)NO (centres unmarked) [Compound 1d, 4-hexyl-N^1-hydroxy-N^8-phenyloctanediamide]
